# Conditions: buffer; pH 7.4; 200.0 µM
row,SMILES,solubility kinetic [µg/mL]
1,COc1ccccc1C(=O)NCCCNC(=O)c1cccnc1,36.8
2,Cc1ccc(C)c(CN2CCSCC2)c1,2.1
3,COc1ccc(N2CCN(C(=O)Cc3ccc(Cl)cc3)CC2)cc1,50.1
4,CCOC(=O)c1ccc(N2C(=O)C=C(N3CCOCC3)C2=O)cc1,> 49.6
5,Cc1cc(C)c(OCCn2ccnc2)c(C)c1,31.5
6,O=c1ccc(S(=O)(=O)N2CCCC2)c[nH]1,> 34.2
7,COc1ccc(NC(=O)NC2(C(=O)N3CCOCC3)CCCCC2)cc1,43
8,COc1ccc(C(=O)/C=C2/C(=O)Nc3ccccc32)cc1OC,1.2
9,CC(C)=CCN1CCN(Cc2ccc(C)s2)CC1CCO (centres undefined),36.4
10,COc1cccc(N2CCN(C(=O)c3cc(C)oc3C)CC2)c1,> 47.2
11,CC(C(=O)NCc1cccnc1)c1ccc([N+](=O)[O-])cc1 (centres undefined),> 42.8
12,COc1ccc(NC(=O)Cc2ccc(Cl)c(Cl)c2)cn1,8.9
13,O=S(=O)(c1ccccc1)N1CN(c2ccc(F)cc2F)c2nc3ccccc3nc21,3.8
14,Cc1ccc(S(=O)(=O)NC(C)C(=O)NC(C)c2cccs2)cc1 (centres undefined),51.6
15,CCCCC(=O)Nc1ccccc1N1CCN(c2ccccc2)CC1,8.1
16,O=C(Cn1c(C(=O)OCCO)cc2ccccc21)c1ccccc1,6.8
17,O=[N+]([O-])c1cc(O)c(O)c([N+](=O)[O-])c1,> 30
18,Cc1ccccc1C(=O)Nc1cccc(NC(=O)c2cccs2)c1,17.7
19,CCOc1ccccc1NS(=O)(=O)c1csc(C(N)=O)c1,> 49
20,O=C(CCCN1C(=O)C2CC=CCC2C1=O)Nc1ccccc1F (centres undefined),> 49.6

row,SMILES,solubility kinetic [µg/mL]
1,CC(C)CCNc1nc(N)c([N+](=O)[O-])c(NC2CCCCC2)n1,< 0.1
2,Cc1cccc2sc(NC(=O)Cn3c(C)csc3=O)nc12,5.1
3,CC(C)(C)NC(=O)NC(=O)CN1CCN(c2ccccc2)CC1,> 47.8
4,CCOc1ncnc2c1sc1nc(C)cc(C)c12,< 0.2
5,CCN(CC)CCn1c(N)nc2ccccc21.Cl,44.7
6,Cc1ccc(CNc2nc3ccccc3n2C)cc1,> 37.7
7,COc1ccc2c(C#N)c3ccccn3c2c1,0.9
8,COc1cccc(N2CCN(c3ccc(S(=O)(=O)N4CCN(C)CC4)cc3[N+](=O)[O-])CC2)c1,11.9
9,NC(=O)c1ccsc1NC(=O)COC(=O)CNC(=O)c1ccc(Cl)cc1,3.4
10,CCOC(=O)C1CCN(C(=O)COc2ccc(C(=O)c3ccccc3)cc2)CC1,36.6
11,N#Cc1ccc(N=c2ssnc2Cl)cc1,4.2
12,NC(=O)CNC(=O)c1cccc(Cl)c1,> 31.9
13,COc1cccc(/C=C/c2nc(C#N)c(NCC(C)C)o2)c1,0.4
14,O=C(OCCN1CCN(C2=NS(=O)(=O)c3ccccc32)CC1)c1ccccc1F,57.3
15,COC(=O)Cc1c(O)ccn(CCc2ccccc2)c1=O,> 43.1
16,COc1ccccc1NC(=O)Nc1cccnc1,34.6
17,Cc1ccc(OCCCCN2CCCCC2)c(C)c1,19.6
18,N/C(Cc1nc(-c2ccc(F)cc2)cs1)=N\O,36.4
19,Cc1ccc(C(=O)NC2CCN(C(=O)Nc3ccccc3)CC2)cc1,4.4
20,Cc1cc(=O)n2c(n1)NC(=NCc1ccccc1)NC2c1ccccc1 (centres undefined),> 51.8

row,SMILES,solubility kinetic [µg/mL]
1,CCN(Cc1ccccc1)C(=O)CSc1n[nH]c(N)n1,> 43.7
2,Cc1ccc(NC(=O)N2CCN(c3ncccc3C(F)(F)F)CC2)cc1,1.5
3,O=C(NCc1csc(-c2cccs2)n1)C1CC1,34.3
4,Cc1ccc(NC(=S)N(CCN(C)C)C(C)c2cccnc2)cc1 (centres undefined),> 51.4
5,COC(=O)c1cc(C(=O)OCC(=O)N2CCCCC2)cc([N+](=O)[O-])c1,> 52.5
6,CCCCn1c(N)c(NCc2ccccc2)c(=O)[nH]c1=O,39.1
7,Cc1ccc(S(=O)(=O)N2CCCCC2)cc1C(=O)N1C(C)CCCC1C (centres undefined),> 56.8
8,Cc1ccc2[nH]c(C(=O)N3CCCCC3)cc2c1,7.6
9,COc1ccccc1C(=O)NC(=O)COC(=O)c1nccnc1N,> 49.5
10,CCCNC(=O)c1ccc(C)c(NC(=O)C2=C(C)OCCS2)c1,> 50.2
11,Cc1ccc(CN(C)c2nc(-c3cccnc3)nc3ccccc23)o1,15.5
12,CNc1nc2c(c(=O)n(C)c(=O)n2C)n1CCCc1ccccc1,> 49.1
13,COc1ccc(CNC(=O)N2CCN(c3ccccc3)CC2)cc1,3.5
14,Cc1cccn2c(=O)c(C=O)c(Nc3ccccc3)nc12,< 0.2
15,COc1cccc(NC(=O)COC(=O)CC2CC3CCC2C3)c1 (centres undefined),24.1
16,CCOC(=O)c1ccc(NC(=O)Cc2cccs2)cc1,> 43.4
17,CC(C(=O)O/N=C(\N)c1ccccn1)c1ccc([N+](=O)[O-])cc1 (centres undefined),> 47.1
18,CCCCC1=NN(C(=O)c2ccncc2)C(O)(C(F)(F)F)C1 (centres undefined),> 47.3
19,COc1ccc(N2Cc3ccccc3C2=O)cc1,12.8
